Assay results from patent US8192962B2, “Processes for detecting toxic substances” (Daikin Industries, Ltd., priority 2001, dated 2012).

Key:
[1] = system: Detoxification protein genes; experiment: DNA chip mRNA expression in yeast, detoxification protein genes (Table 8); type: cell-based, Saccharomyces cerevisiae S288C
Protocol: (§1) Yeast (Saccharomyces cerevisiae S288C (α SUC2mal mel gap2 CUP1)) were incubated at 25° C. on YPD medium (yeast extract 1%, polypepton 2%, glucose 2%). One of toxic chemical substances was added to the cells at logarithmic growth phase, and the cells were further incubated for two hours. Cells were cultured without any chemical substance in the same condition, and were used as control. Concentrations of the chemical substances were defined to inhibit the growth of the yeast but not lead to death.
(§2) After completion of the incubation, the culture was centrifuged to collect the cells. To the cells, sodium acetate buffer (50 mM sodium acetate, 10 mM EDTA, 1% SDS) was added, and the mixture was shaken at 65° C. for five minutes, followed by returning to room temperature, and obtaining the supernatant, of which the procedures were repeated two times. To the supernatant, ½ amount of a solution of phenol/chloroform was added, and the mixture was centrifuged to give a supernatant, which was added with an equal amount of chloroform, and the mixture was centrifuged to give a supernatant. To the supernatant, an equal amount of isopropanol containing 0.3 M sodium acetate was added, and the mixture was allowed to stand at room temperature for 30 minutes, after which the mixture was centrifuged to give a sediment of the whole RNAs. Seventy % ethanol was added to the sediment, and the mixture was again centrifuged to give a sediment, which was then dried and dissolved in water. mRNA was isolated from the whole RNAs as followings. In view of the fact that a poly A chain is attached to the 3′ terminus of mRNA, a polynucleotide having a poly T structure which was immobilized on the surface of latex beads was used to trap the mRNA, and then the mRNA was washed and eluted with spine column (Oligotex-dT30<Super>mRNA Purification Kit, Takara). Reverse transcription of the mRNA was conducted with a reverse transcriptase (Super Script II Reverse Transcriptase; catalogue No. 18064-014, GibcoBRL) using fluorescence-labeled nucleotides to give cDNAs that were introduced with Cy3-dUTP or Cy5-dUTP during the reverse transcription.
(§3) The labeled cDNAs were dissolved in TE buffer (10mM Tris-HCl/1 mM EDTA, pH8.0), and the solution was dropped on the DNA chip containing the whole genes of yeast (DNA Chip Research Inc. Japan) so that the cDNAs were hybridized on the DNA chip at 65° C. for over 12 hours. The fluoresces intensity of the DNA chip was read with a scanner, and the ratio relative to the fluorescence intensity resulting from the absence of chemical substance was estimated as the following, which is shown in Tables 1 to 9: […]

DNA repair protein genes = experiment: DNA chip mRNA expression in yeast, DNA repair protein genes (Table 3); type: cell-based, Saccharomyces cerevisiae S288C; settings: incubated two hours, concentrations as in the 1st table
Protocol: as §1, §2, §3

In the case of `CCCCCCCCCCCCc1ccc(S(=O)(=O)[O-])cc1.[Na+]` [(17), sodium dodecylbenzosulfonate], the “The level of expressed mRNA in the presence of chemical substance/The level of expressed mRNA in the absence of chemical substance” value ([1]; yeast gene YOR251C) is reported as 0.9, the “The level of expressed mRNA in the presence of chemical substance/The level of expressed mRNA in the absence of chemical substance” value ([1]; yeast gene YOR273C) is reported as 3.2 and the “The level of expressed mRNA in the presence of chemical substance/The level of expressed mRNA in the absence of chemical substance” value ([1]; yeast gene YPL163C) is reported as 1.4. The “The level of expressed mRNA in the presence of chemical substance/The level of expressed mRNA in the absence of chemical substance” value ([1]; yeast gene YPR200C) was 1.1, the “The level of expressed mRNA in the presence of chemical substance/The level of expressed mRNA in the absence of chemical substance” value (DNA repair protein genes; yeast gene YAL015C) was 1.1 and the “The level of expressed mRNA in the presence of chemical substance/The level of expressed mRNA in the absence of chemical substance” value (DNA repair protein genes; yeast gene YAR007C) was 0.8. The “The level of expressed mRNA in the presence of chemical substance/The level of expressed mRNA in the absence of chemical substance” value (DNA repair protein genes; yeast gene YBL019W) was 0.8, the “The level of expressed mRNA in the presence of chemical substance/The level of expressed mRNA in the absence of chemical substance” value (DNA repair protein genes; yeast gene YBR073W) was 0.7 and the “The level of expressed mRNA in the presence of chemical substance/The level of expressed mRNA in the absence of chemical substance” value (DNA repair protein genes; yeast gene YBR272C) was 1.1. The “The level of expressed mRNA in the presence of chemical substance/The level of expressed mRNA in the absence of chemical substance” value (DNA repair protein genes; yeast gene YCR014C) was 1.0, the “The level of expressed mRNA in the presence of chemical substance/The level of expressed mRNA in the absence of chemical substance” value (DNA repair protein genes; yeast gene YDL017W) was 0.8 and the “The level of expressed mRNA in the presence of chemical substance/The level of expressed mRNA in the absence of chemical substance” value (DNA repair protein genes; yeast gene YDL059C) was 0.8. The “The level of expressed mRNA in the presence of chemical substance/The level of expressed mRNA in the absence of chemical substance” value (DNA repair protein genes; yeast gene YDL200C) was 0.9, the “The level of expressed mRNA in the presence of chemical substance/The level of expressed mRNA in the absence of chemical substance” value (DNA repair protein genes; yeast gene YDR054C) was 0.8 and the “The level of expressed mRNA in the presence of chemical substance/The level of expressed mRNA in the absence of chemical substance” value (DNA repair protein genes; yeast gene YDR369C) was 0.8. The “The level of expressed mRNA in the presence of chemical substance/The level of expressed mRNA in the absence of chemical substance” value (DNA repair protein genes; yeast gene YEL019C) was 0.8, the “The level of expressed mRNA in the presence of chemical substance/The level of expressed mRNA in the absence of chemical substance” value (DNA repair protein genes; yeast gene YEL037C) was 1.0 and the “The level of expressed mRNA in the presence of chemical substance/The level of expressed mRNA in the absence of chemical substance” value (DNA repair protein genes; yeast gene YER162C) was 1.2. The “The level of expressed mRNA in the presence of chemical substance/The level of expressed mRNA in the absence of chemical substance” value (DNA repair protein genes; yeast gene YFL014W) was 1.5, the “The level of expressed mRNA in the presence of chemical substance/The level of expressed mRNA in the absence of chemical substance” value (DNA repair protein genes; yeast gene YGL058W) was 1.1 and the “The level of expressed mRNA in the presence of chemical substance/The level of expressed mRNA in the absence of chemical substance” value (DNA repair protein genes; yeast gene YGL091C) was 1.4. The “The level of expressed mRNA in the presence of chemical substance/The level of expressed mRNA in the absence of chemical substance” value (DNA repair protein genes; yeast gene YGL127C) was 1.0, the “The level of expressed mRNA in the presence of chemical substance/The level of expressed mRNA in the absence of chemical substance” value (DNA repair protein genes; yeast gene YGL163C) was 0.9 and the “The level of expressed mRNA in the presence of chemical substance/The level of expressed mRNA in the absence of chemical substance” value (DNA repair protein genes; yeast gene YGL249W) was 1.0. The “The level of expressed mRNA in the presence of chemical substance/The level of expressed mRNA in the absence of chemical substance” value (DNA repair protein genes; yeast gene YGR180C) was 1.0, the “The level of expressed mRNA in the presence of chemical substance/The level of expressed mRNA in the absence of chemical substance” value (DNA repair protein genes; yeast gene YGR231C) was 1.0 and the “The level of expressed mRNA in the presence of chemical substance/The level of expressed mRNA in the absence of chemical substance” value (DNA repair protein genes; yeast gene YGR258C) was 1.0. For the same compound, the “The level of expressed mRNA in the presence of chemical substance/The level of expressed mRNA in the absence of chemical substance” value (DNA repair protein genes; yeast gene YHR164C) was 0.8, the “The level of expressed mRNA in the presence of chemical substance/The level of expressed mRNA in the absence of chemical substance” value (DNA repair protein genes; yeast gene YIL036W) was 1.1 and the “The level of expressed mRNA in the presence of chemical substance/The level of expressed mRNA in the absence of chemical substance” value (DNA repair protein genes; yeast gene YIL072W) was 1.0. The “The level of expressed mRNA in the presence of chemical substance/The level of expressed mRNA in the absence of chemical substance” value (DNA repair protein genes; yeast gene YIL143C) was 0.9, the “The level of expressed mRNA in the presence of chemical substance/The level of expressed mRNA in the absence of chemical substance” value (DNA repair protein genes; yeast gene YIL153W) was 0.9 and the “The level of expressed mRNA in the presence of chemical substance/The level of expressed mRNA in the absence of chemical substance” value (DNA repair protein genes; yeast gene YIR002C) was 1.1. For the same compound, the “The level of expressed mRNA in the presence of chemical substance/The level of expressed mRNA in the absence of chemical substance” value (DNA repair protein genes; yeast gene YJL026W) was 1.4, the “The level of expressed mRNA in the presence of chemical substance/The level of expressed mRNA in the absence of chemical substance” value (DNA repair protein genes; yeast gene YJR046W) was 0.7 and the “The level of expressed mRNA in the presence of chemical substance/The level of expressed mRNA in the absence of chemical substance” value (DNA repair protein genes; yeast gene YJR052W) was 1.0. For the same compound, the “The level of expressed mRNA in the presence of chemical substance/The level of expressed mRNA in the absence of chemical substance” value (DNA repair protein genes; yeast gene YKL145W) was 1.1, the “The level of expressed mRNA in the presence of chemical substance/The level of expressed mRNA in the absence of chemical substance” value (DNA repair protein genes; yeast gene YLR103C) was 1.1 and the “The level of expressed mRNA in the presence of chemical substance/The level of expressed mRNA in the absence of chemical substance” value (DNA repair protein genes; yeast gene YLR233C) was 1.0. The “The level of expressed mRNA in the presence of chemical substance/The level of expressed mRNA in the absence of chemical substance” value (DNA repair protein genes; yeast gene YLR288C) was 1.2, the “The level of expressed mRNA in the presence of chemical substance/The level of expressed mRNA in the absence of chemical substance” value (DNA repair protein genes; yeast gene YML032C) was 1.0 and the “The level of expressed mRNA in the presence of chemical substance/The level of expressed mRNA in the absence of chemical substance” value (DNA repair protein genes; yeast gene YML058W) was 1.3. For the same compound, the “The level of expressed mRNA in the presence of chemical substance/The level of expressed mRNA in the absence of chemical substance” value (DNA repair protein genes; yeast gene YMR035W) was 2.2, the “The level of expressed mRNA in the presence of chemical substance/The level of expressed mRNA in the absence of chemical substance” value (DNA repair protein genes; yeast gene YMR072W) was 0.9 and the “The level of expressed mRNA in the presence of chemical substance/The level of expressed mRNA in the absence of chemical substance” value (DNA repair protein genes; yeast gene YMR096W) was 2.2. The “The level of expressed mRNA in the presence of chemical substance/The level of expressed mRNA in the absence of chemical substance” value (DNA repair protein genes; yeast gene YMR284W) was 1.1, the “The level of expressed mRNA in the presence of chemical substance/The level of expressed mRNA in the absence of chemical substance” value (DNA repair protein genes; yeast gene YNL213C) was 0.9 and the “The level of expressed mRNA in the presence of chemical substance/The level of expressed mRNA in the absence of chemical substance” value (DNA repair protein genes; yeast gene YNL250W) was 1.0. The “The level of expressed mRNA in the presence of chemical substance/The level of expressed mRNA in the absence of chemical substance” value (DNA repair protein genes; yeast gene YNL261W) was 0.8, the “The level of expressed mRNA in the presence of chemical substance/The level of expressed mRNA in the absence of chemical substance” value (DNA repair protein genes; yeast gene YNL312W) was 1.2 and the “The level of expressed mRNA in the presence of chemical substance/The level of expressed mRNA in the absence of chemical substance” value (DNA repair protein genes; yeast gene YOL043C) was 1.0. For the same compound, the “The level of expressed mRNA in the presence of chemical substance/The level of expressed mRNA in the absence of chemical substance” value (DNA repair protein genes; yeast gene YOR005C) was 1.1, the “The level of expressed mRNA in the presence of chemical substance/The level of expressed mRNA in the absence of chemical substance” value (DNA repair protein genes; yeast gene YOR386W) was 2.1 and the “The level of expressed mRNA in the presence of chemical substance/The level of expressed mRNA in the absence of chemical substance” value (DNA repair protein genes; yeast gene YPL022W) was 0.9. The “The level of expressed mRNA in the presence of chemical substance/The level of expressed mRNA in the absence of chemical substance” value (DNA repair protein genes; yeast gene YPL164C) was 1.0, the “The level of expressed mRNA in the presence of chemical substance/The level of expressed mRNA in the absence of chemical substance” value (DNA repair protein genes; yeast gene YPL194W) was 1.0 and the “The level of expressed mRNA in the presence of chemical substance/The level of expressed mRNA in the absence of chemical substance” value (DNA repair protein genes; yeast gene YPR025C) was 1.1.
